Assay results: ChEMBL document CHEMBL6078645, “Expanding the Solvent/Protein Region Occupation of the Non-Nucleoside Reverse Transcriptase Inhibitor Binding Pocket for Improved Broad-Spectrum Anti-HIV-1 Efficacy: from Rigid Phenyl-Diarylpyrimidines to Flexible Hydrophilic Piperidine-Diarylpyrimidines” (J Med Chem, 2024)
“And” between values parts separate entries of the source, which are not always exact repeats. Identical values can stand only once.

Key:
[1] = target: T1, Human immunodeficiency virus type 1 reverse transcriptase (Human immunodeficiency virus 1, UniProt Q72547); assay: Inhibition of HIV-1 reverse transcriptase
[2] = system: Human immunodeficiency virus 1; assay: Antiviral activity against HIV-1 harboring Y188L mutant infected in human MT4 cells assessed as protection against virus-induced cytopathic effect incubated for 5 days by MTT assay; assay type: functional, organism-based; conditions: Human immunodeficiency virus 1, MT4, 120 h
[3] = system: Human immunodeficiency virus 1; assay: Antiviral activity against HIV-1 harboring F227L/V106A double mutant infected in human MT4 cells assessed as protection against virus-induced cytopathic effect incubated for 5 days by MTT assay; assay type: functional, organism-based; conditions: Human immunodeficiency virus 1, MT4, 120 h
[4] = system: Human immunodeficiency virus 1; assay: Antiviral activity against HIV-1 harboring RES056 mutant infected in human MT4 cells assessed as protection against virus-induced cytopathic effect incubated for 5 days by MTT assay; assay type: functional, organism-based; conditions: Human immunodeficiency virus 1, MT4, 120 h
[5] = Cytotoxicity against human MT4 cells assessed as reduction in cell viability incubated for 5 days by MTT assay; assay type: toxicity, cell-based; conditions: MT4 cells, time 5 day
[6] = Selectivity index, ratio of CC50 for cytotoxicity against human MT4 cells assessed as reduction in cell viability to EC50 for antiviral activity against wild type HIV-1 IIIB infected in human MT4 cells assessed as protection against virus-induced cytopathic effect; assay type: toxicity, cell-based; conditions: MT4 cells, read-out: Ratio CC50/EC50
[7] = system: Human immunodeficiency virus 1; assay: Antiviral activity against HIV-1 harboring L100I mutant infected in human MT4 cells assessed as protection against virus-induced cytopathic effect incubated for 5 days by MTT assay; assay type: functional, organism-based; conditions: Human immunodeficiency virus 1, MT4, 120 h
[8] = system: Human immunodeficiency virus 1; assay: Antiviral activity against HIV-1 harboring K103N mutant infected in human MT4 cells assessed as protection against virus-induced cytopathic effect incubated for 5 days by MTT assay; assay type: functional, organism-based; conditions: Human immunodeficiency virus 1, MT4, 120 h
[9] = system: Human immunodeficiency virus 1; assay: Antiviral activity against HIV-1 harboring Y181C mutant infected in human MT4 cells assessed as protection against virus-induced cytopathic effect incubated for 5 days by MTT assay; assay type: functional, organism-based; conditions: Human immunodeficiency virus 1, MT4, 120 h
[10] = system: Human immunodeficiency virus 1; assay: Antiviral activity against HIV-1 harboring E138K mutant infected in human MT4 cells assessed as protection against virus-induced cytopathic effect incubated for 5 days by MTT assay; assay type: functional, organism-based; conditions: Human immunodeficiency virus 1, MT4, 120 h
[11] = target: T1, Human immunodeficiency virus type 1 reverse transcriptase; assay: Inhibition of wildtype recombinant HIV-1 Reverse transcriptase incubated for 40 mins by spectrofluorometric analysis
[12] = system: Human immunodeficiency virus 1; assay: Antiviral activity against wild type HIV-1 IIIB infected in human MT4 cells assessed as protection against virus-induced cytopathic effect incubated for 5 days by MTT assay; assay type: functional, organism-based; conditions: Human immunodeficiency virus 1, IIIB, MT4, 120 h

SMILES	EC50 [1]	EC50 [2]	EC50 [3]	EC50 [4]	CC50 at 120 h [5]	selectivity ratio [6]	EC50 [7]	EC50 [8]	EC50 [9]	EC50 [10]	IC50 [11]	EC50 [12]
Cc1cc(-c2ccc(C#N)cc2)cc(C)c1Oc1nc(NC2CCN(Cc3cccc(C#N)c3)CC2)ncc1CO	0.008 µM	0.051 µM	0.122 µM	0.99 µM	5.81 µM	711	0.012 µM	0.016 µM	0.018 µM	0.055 µM	0.261 µM	–
CNC(=O)c1cccc(CN2CCC(Nc3ncc(CO)c(Oc4c(C)cc(-c5ccc(C#N)cc5)cc4C)n3)CC2)c1	0.04 µM	0.813 µM	5 µM	5.63 µM	20.2 µM	506	–	–	–	–	0.305 µM	–
Cc1cc(-c2ccc(C#N)cc2)cc(C)c1Oc1nc(NC2CCN(Cc3cccc([N+](=O)[O-])c3)CC2)ncc1CO	0.009 µM	0.167 µM	0.291 µM	0.646 µM	7.36 µM	819	–	–	–	–	0.184 µM	–
Cc1ccnc2c1NC(=O)c1cccnc1N2C1CC1 [NEVIRAPINE]	–	9.31 µM	6.46 µM	> 15.3 µM	> 15.3 µM	–	1360 µM	2.18 µM	6.92 µM	–	–	–
CNC(=O)c1ccc(CN2CCC(Nc3ncc(CO)c(Oc4c(C)cc(-c5ccc(C#N)cc5)cc4C)n3)CC2)cc1	0.023 µM	0.551 µM	1.39 µM	4.69 µM	28.1 µM	1250	–	–	–	–	0.438 µM	–
COC(=O)/C=C/c1ccc(CN2CCC(Nc3ncc(CO)c(Oc4c(C)cc(-c5ccc(C#N)cc5)cc4C)n3)CC2)cc1	0.007 µM	0.213 µM	0.329 µM	0.357 µM	88.3 µM	13400	–	–	–	–	0.437 µM	–
Cc1cc(-c2ccc(C#N)cc2)cc(C)c1Oc1nc(NC2CCN(Cc3ccc(C#N)cc3)CC2)ncc1CO	0.007 µM	0.059 µM	0.071 µM	0.294 µM	4.83 µM	684	0.009 µM	0.006 µM	0.022 µM	0.021 µM	0.297 µM	–
Cc1cc(-c2ccc(C#N)cc2)cc(C)c1Oc1nc(NC2CCN(Cc3ccc(OC(F)(F)F)cc3)CC2)ncc1CO	0.043 µM	0.479 µM	1.08 µM	1.26 µM	5.96 µM	140	–	–	–	–	0.375 µM and 0.249 µM	–
Cc1cc(-c2ccc(C#N)cc2)cc(C)c1Oc1nc(NC2CCN(Cc3ccc(S(=O)(=O)NCCO)cc3)CC2)ncc1CO	0.01 µM	0.228 µM	0.069 µM	0.327 µM	15.5 µM	1630	–	–	–	–	0.413 µM	–
Cc1cc(-c2ccncc2)cc(C)c1Oc1nc(NC2CCN(Cc3ccc(S(=O)(=O)N4CCC(O)CC4)cc3)CC2)ncc1CO	–	0.226 µM	0.043 µM	0.446 µM	17.7 µM	750	–	–	–	–	–	0.024 µM
Cc1cc(-c2ccc(C#N)cc2)cc(C)c1Oc1nc(NC2CCN(Cc3ccc(S(C)(=O)=O)cc3)CC2)ncc1CO	0.008 µM	0.058 µM	0.052 µM	0.163 µM	9.17 µM	1190	0.008 µM	0.018 µM	0.019 µM	0.036 µM	0.27 µM	–
Cc1cc(-c2ccc(C#N)cc2)cc(C)c1Oc1nc(NC2CCN(Cc3ccc(CO)cc3)CC2)ncc1CO	–	0.056 µM	0.051 µM	0.307 µM	18.4 µM	1980	–	–	–	–	–	0.009 µM
Cc1cc(-c2ccc(C#N)cc2)cc(C)c1Oc1nc(NC2CCN(Cc3cccc(C(N)=O)c3)CC2)ncc1CO	0.008 µM	0.255 µM	0.271 µM	1.21 µM	18.4 µM	2230	–	–	–	–	0.201 µM	–
COCCNC(=O)c1ccc(CN2CCC(Nc3ncc(CO)c(Oc4c(C)cc(-c5ccc(C#N)cc5)cc4C)n3)CC2)cc1	0.009 µM	0.049 µM	0.042 µM	0.044 µM	17.6 µM	1860	0.006 µM	0.007 µM	0.023 µM	0.019 µM	0.509 µM	–
COC(=O)c1ccc(CN2CCC(Nc3ncc(CO)c(Oc4c(C)cc(-c5ccc(C#N)cc5)cc4C)n3)CC2)cc1	0.012 µM	0.175 µM	0.175 µM	0.469 µM	13.9 µM	1120	–	–	–	–	0.377 µM	–
Cc1cc(-c2ccc(C#N)cc2)cc(C)c1Oc1nc(NC2CCN(Cc3ccc(C(=O)NCCO)cc3)CC2)ncc1CO	0.014 µM	–	–	–	16.3 µM	1140	–	–	–	–	–	–
Cc1cn([C@H]2C[C@H](N=[N+]=[N-])[C@@H](CO)O2)c(=O)[nH]c1=O [ZIDOVUDINE]	0.027 µM	0.015 µM	0.017 µM	0.034 µM	> 7.49 µM	> 281	–	0.029 µM	0.022 µM	0.032 µM	–	–
Cc1cc(-c2ccc(C#N)cc2)cc(C)c1Oc1nc(NC2CCN(Cc3ccc(F)cc3)CC2)ncc1CO	0.009 µM	0.283 µM	0.558 µM	0.935 µM	5.68 µM	629	–	–	–	–	–	–
Cc1cc(-c2ccc(C#N)cc2)cc(C)c1Oc1nc(NC2CCN(Cc3ccc(C(F)(F)F)cc3)CC2)ncc1CO	0.04 µM	0.701 µM	1.59 µM	2.6 µM	5.05 µM	127	–	–	–	–	–	–
Cc1cc(-c2ccc(C#N)cc2)cc(C)c1Oc1nc(NC2CCN(Cc3ccc([N+](=O)[O-])cc3)CC2)ncc1CO	0.008 µM	0.189 µM	0.54 µM	0.306 µM	3.23 µM	381	–	–	–	–	0.202 µM	–
Cc1cc(-c2ccc(C#N)cc2)cc(C)c1Oc1nc(NC2CCN(Cc3ccc(S(=O)(=O)NCCCO)cc3)CC2)ncc1CO	0.026 µM	0.24 µM	0.114 µM	0.268 µM	6.32 µM	247	–	–	–	–	0.543 µM	–
Cc1cc(-c2ccc(C#N)cc2)cc(C)c1Oc1nc(NC2CCN(Cc3ccccc3C#N)CC2)ncc1CO	0.008 µM	0.2 µM	0.239 µM	0.409 µM	5.14 µM	628	–	–	–	–	0.226 µM	–
O=C1Nc2ccc(Cl)cc2[C@@](C#CC2CC2)(C(F)(F)F)O1 [EFAVIRENZ]	–	–	–	0.579 µM	> 6.35 µM	–	0.055 µM	–	0.008 µM	0.01 µM	–	–
Cc1ccc(CN2CCC(Nc3ncc(CO)c(Oc4c(C)cc(-c5ccc(C#N)cc5)cc4C)n3)CC2)cc1	0.013 µM	0.237 µM	0.81 µM	1.12 µM	3.66 µM	285	–	–	–	–	0.626 µM	–
Cc1cc(-c2ccncc2)cc(C)c1Oc1nc(NC2CCN(Cc3ccc(C(=O)NCCCO)cc3)CC2)ncc1CO	–	–	–	–	–	–	–	–	–	–	0.355 µM	–
COCCNS(=O)(=O)c1ccc(CN2CCC(Nc3ncc(CO)c(Oc4c(C)cc(-c5ccc(C#N)cc5)cc4C)n3)CC2)cc1	0.006 µM	0.047 µM	0.034 µM	0.045 µM	6.71 µM	1030	0.006 µM	0.007 µM	0.034 µM	0.04 µM	0.575 µM	–
Cc1cc(-c2ccc(C#N)cc2)cc(C)c1Oc1nc(NC2CCN(Cc3ccc(C(=O)NCCCO)cc3)CC2)ncc1CO	0.007 µM	0.114 µM	0.055 µM	0.272 µM	17.3 µM	2630	0.01 µM	0.007 µM	0.029 µM	0.026 µM	0.463 µM	–
Cc1cc(/C=C/C#N)cc(C)c1Nc1ccnc(Nc2ccc(C#N)cc2)n1 [RILPIVIRINE]	0.001 µM	–	–	–	–	–	0.002 µM	–	–	–	–	–
Cc1cc(-c2ccc(C#N)cc2)cc(C)c1Oc1nc(NC2CCN(Cc3ccc(C(N)=O)cc3)CC2)ncc1CO	0.007 µM	0.156 µM	0.26 µM	0.304 µM	21.8 µM	3200	–	–	–	–	0.265 µM	–
CNS(=O)(=O)c1ccc(CN2CCC(Nc3ncc(CO)c(Oc4c(C)cc(-c5ccc(C#N)cc5)cc4C)n3)CC2)cc1	0.006 µM	0.031 µM	0.052 µM	0.066 µM	6.68 µM	1190	0.008 µM	0.01 µM	0.019 µM	0.03 µM	0.497 µM	–
